Target: α-glucosidase (Saccharomyces cerevisiae, UniProt P53341)
Assay: α-Glucosidase inhibitory assay
Type: biochemical
Conditions: for IC50: 4-nitrophenyl-α-D-glucopyranoside substrate, 37°C, 30 min, absorbance 405 nm, read-out: IC50 (μM), α-glucosidase inhibitory activities; for inhibitory activities against α-glucosidase (in words): conclusion statement
Method: IC50 values were calculated from the graph of inhibition percentage against the logarithm of the concentrations of compounds.

Sequence of α-glucosidase (P53341 whole entry): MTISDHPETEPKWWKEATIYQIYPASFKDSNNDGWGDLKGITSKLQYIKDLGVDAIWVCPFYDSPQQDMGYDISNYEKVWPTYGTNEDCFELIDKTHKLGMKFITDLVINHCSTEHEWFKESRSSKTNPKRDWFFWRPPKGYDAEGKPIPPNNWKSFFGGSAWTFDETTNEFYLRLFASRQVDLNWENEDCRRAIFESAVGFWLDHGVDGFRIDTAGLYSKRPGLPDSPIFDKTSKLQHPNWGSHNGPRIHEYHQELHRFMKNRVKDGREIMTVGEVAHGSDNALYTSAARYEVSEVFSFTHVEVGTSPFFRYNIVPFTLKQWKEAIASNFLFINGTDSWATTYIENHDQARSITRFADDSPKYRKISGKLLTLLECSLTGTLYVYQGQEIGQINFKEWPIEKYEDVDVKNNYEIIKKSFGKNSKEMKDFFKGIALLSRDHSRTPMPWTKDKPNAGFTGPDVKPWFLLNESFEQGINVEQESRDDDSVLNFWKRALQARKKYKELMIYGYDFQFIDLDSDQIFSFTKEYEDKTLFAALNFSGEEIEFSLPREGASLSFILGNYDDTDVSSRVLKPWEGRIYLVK

With vittarin-B [Compound 9] the IC50 was 22.5 µM and the “inhibitory activities against α-glucosidase (in words)” value (from here on “inhibitory activities”) was “moderate inhibitory activities”.
`O=C1c2c(O)cc(O)cc2O[C@H](c2ccc(O)cc2)[C@H]1O` [Compound 17, dihydrokaempferol] was tested, and the “inhibitory activities” value was “moderate inhibitory activities”.
“demethylflavasperone-10-O-β-D-glucopyranoside [Compound 10]” gave an IC50 of over 50 µM.
With `O=c1c(O)c(-c2ccc(O)c(O)c2)oc2cc(O)cc(O)c12` [Compound 14, quercetin] the “inhibitory activities” value was “moderate inhibitory activities”.
With `COc1c(O)c(O)cc2c1C(=O)c1c(O)cc(C)cc1C2=O` [Compound 18, 2-hydroxyemodin 1-methyl ether] the IC50 was over 50 µM.
Molecule `COc1cc(O[C@@H]2O[C@H](CO[C@@H]3O[C@@H](C)[C@H](O)[C@@H](O)[C@H]3O)[C@@H](O)[C@H](O)[C@H]2O)c2c(O)c3c(=O)cc(C)oc3cc2c1` [Compound 12, rubrofusarin-6-O-α-L-rhamnosyl-(1→6)-O-β-D-glucopyranside] has an IC50 of over 50 µM.
In the case of `COc1cc(O[C@@H]2O[C@H](CO)[C@@H](O)[C@H](O)[C@H]2O)c2c(O)c3c(=O)cc(C)oc3cc2c1` [Compound 11, rubrofusarin-6-O-β-D-glucopyranoside], the IC50 is reported as 28 µM and the “inhibitory activities” value is reported as “moderate inhibitory activities”.
For `O=c1c(O)c(-c2ccc(O)cc2)oc2cc(O)cc(O)c12` [Compound 15, kaempferol], the “inhibitory activities” value was “moderate inhibitory activities”.
